Converted amounts (≈) assume the structure as drawn. Peptide text beside a SMILES is read from it.
Legend:
physchem = settings: aqueous medium
From the text: (§1) The water solubility of these peptides/peptidometrics is defined by the correct choice of sidechain functionalities.

[1] = Circular dichroism (CD) thermal denaturation study; format: physicochemical
From the text: as §1

[2] = Solubility in organic solvents (purification work); format: physicochemical
Method: However, dissolution of the crude peptide in HFIP at a concentration of about 80 mg mL^−1, followed by twofold dilution with HFA.3H2O, furnished a solution that was suitable for use in RP-HPLC.
The next attempt to repurify fraction a of the RP-HPLC purified material using gravity-driven GPC on Sephadex LH-20. These efforts were complicated by the lack of a suitable pure solvent that would satisfy the following criteria: (1) the solvent must be able to dissolve the partially purified peptide, and (2) the solvent must be sufficiently polar to prevent irreversible adsorption of the peptide to the LH-20 stationary phase. One choice was CHCl3, in which the peptide is soluble to about. 20 mM; CHCl3, however, is a nonpolar solvent. Moreover, CHCl3 is denser than LH-20 and therefore inconvenient for GPC using gravity-driven flow. However, the solvent mixture CHCl3/MeOH (65:35) satisfies both of the criteria stated above; in addition, this mixture is less dense than LH-20. A single pass of fraction a through a 2.5×55 cm column of LH-20 in CHCl3/MeOH gave material that was ≧95% pure as estimated by 1D ^1H NMR (FIG. 9c). Furthermore, even fraction b of the RP-HPLC-purified material, which contained about 30% contaminant (FIG. 9b), could be purified in this manner. […]

solubility ([2]; CHCl3, partially purified peptide) [mM] | solubility in solvents typically used for RP-HPLC ([2]; crude peptide, MeOH, EtOH, i-PrOH, and CH3CN) | SMILES | solubility (physchem) [mM] | change of beta-hairpin structure (CD) with temperature ([1]; aqueous state, 100 mM phosphate buffered saline buffer, about 5° C. to about 95° C.) | temperature up to which helical structure resists thermal denaturation (CD) ([1]; in methanol and trifluoroethanol)
– | – | CC(C)C[C@H]1NC(=O)CNC(=O)[C@@H]2CCCN2C(=O)[C@@H](C)NC(=O)[C@H]([C@@H](C)O)NC(=O)[C@@H](CC(C)C)NC(=O)[C@H]([C@@H](C)O)NC(=O)[C@@H](C(C)C)NC(=O)[C@H](CCCCN)NC(=O)[C@@H](CC(C)C)NC(=O)[C@H](CCC(=O)O)NC(=O)[C@@H](C)NC(=O)CNC(=O)[C@@H]2CCCN2C(=O)[C@@H](C(C)C)NC(=O)[C@H]([C@@H](C)O)NC(=O)[C@@H](C)NC(=O)[C@H]([C@@H](C)O)NC(=O)[C@@H](CC(C)C)NC(=O)[C@H](CCCNC(=N)N)NC(=O)[C@@H](C(C)C)NC(=O)[C@H](CCC(=O)O)NC1=O [Peptide 1] (HELM PEPTIDE1{[dL].E.[dV].R.[dL].T.[dA].T.[dV].P.G.[dA].E.[dL].K.[dV].T.[dL].T.[dA].P.G}$PEPTIDE1,PEPTIDE1,1:R1-22:R2$$$V2.0) | > 10 | does not change | up to 85 °C
~20 (≈ 41.9 mg/mL) | insoluble | CC(C)[C@@H]1NC(=O)CNC(=O)[C@H]2CCCN2C(=O)[C@H](C(C)C)NC(=O)[C@@H](C(C)C)NC(=O)[C@H](C(C)C)NC(=O)[C@@H](C(C)C)NC(=O)[C@H](C(C)C)NC(=O)[C@@H](C(C)C)NC(=O)[C@H](C(C)C)NC(=O)[C@@H](C(C)C)NC(=O)[C@H](C(C)C)NC(=O)CNC(=O)[C@H]2CCCN2C(=O)[C@H](C(C)C)NC(=O)[C@@H](C(C)C)NC(=O)[C@H](C(C)C)NC(=O)[C@@H](C(C)C)NC(=O)[C@H](C(C)C)NC(=O)[C@@H](C(C)C)NC(=O)[C@H](C(C)C)NC(=O)[C@@H](C(C)C)NC1=O [Peptide 3, cyclo{[(L-Val-D-Val)4-(L-Val-D-Pro-Gly)]2-}] (HELM PEPTIDE1{V.[dP].G.V.[dV].V.[dV].V.[dV].V.[dV].V.[dP].G.V.[dV].V.[dV].V.[dV].V.[dV]}$PEPTIDE1,PEPTIDE1,1:R1-22:R2$$$V2.0) | – | – | –
